# Laboratory results: patent US9273040B2 (Merck Sharp & Dohme Corp., priority 2011, dated 2016)
# Experiments:
# Assay type in all cases: cell-based
# [1] = biological target: T1, human Nav1.5 channels stably expressed in HEK 293 cells (Homo sapiens, UniProt Q14524); assay: IonWorks Quattro automated patch-clamp, sodium current, inactivated state block; conditions: selectivity over Nav1.5
# T1 construct: expressed in transfected cells
# Experimental: (§1) Compounds were tested on human Nav1.7 and Nav1.5 channels stably expressed in HEK 293 cells. […] Cells were sealed on a planar substrate using the Population Patch Plate (PPC) technology. Electrical access was obtained using both nystatin and amphotericin. A double-pulse protocol was used for the determination of IC50 values for inactivated state block. Nav1.7 and Nav1.5 expressing cells were voltage clamped at −100 mV and −110 mV, respectively. A depolarizing prepulse to −10 mV (Nav1.7) or −30 mV (Nav1.5) for 1000 ms followed by a 10 ms repolarization to −100 mV (Nav1.7) or −110 mV (Nav1.5) was given to generate fractional channel inactivation of ˜50%, followed by a 10 ms test pulse to −10 mV (Nav1.7) or −30 mV (Nav1.5) to measure peak current in control conditions and after compound addition. The following recording solutions were used (mM). External: 150 NaCl, 2 CaCl2, 5 KCl, 1 Mg Cl2, 10 HEPES, 12 Dextrose; internal: 120 CsF, 30 CsCl, 10 EGTA, 5 HEPES, 5 NaF, 2 MgCl2.
# (§2) For all electrophysiology experiments, offline analysis was used to correct for current rundown and to determine percent inhibition as a function of drug concentration. IC50 values were determined by fitting to the Hill equation.
# [2] = biological target: T2, human Nav1.7 channels stably expressed in HEK 293 cells (Homo sapiens, UniProt Q15858); assay: as above; conditions: read-out: potency for the Nav 1.7 sodium ion channel (as measured by IonWorks)
# T2 construct: expressed in transfected cells
# T2 sequence (Q15858 whole entry): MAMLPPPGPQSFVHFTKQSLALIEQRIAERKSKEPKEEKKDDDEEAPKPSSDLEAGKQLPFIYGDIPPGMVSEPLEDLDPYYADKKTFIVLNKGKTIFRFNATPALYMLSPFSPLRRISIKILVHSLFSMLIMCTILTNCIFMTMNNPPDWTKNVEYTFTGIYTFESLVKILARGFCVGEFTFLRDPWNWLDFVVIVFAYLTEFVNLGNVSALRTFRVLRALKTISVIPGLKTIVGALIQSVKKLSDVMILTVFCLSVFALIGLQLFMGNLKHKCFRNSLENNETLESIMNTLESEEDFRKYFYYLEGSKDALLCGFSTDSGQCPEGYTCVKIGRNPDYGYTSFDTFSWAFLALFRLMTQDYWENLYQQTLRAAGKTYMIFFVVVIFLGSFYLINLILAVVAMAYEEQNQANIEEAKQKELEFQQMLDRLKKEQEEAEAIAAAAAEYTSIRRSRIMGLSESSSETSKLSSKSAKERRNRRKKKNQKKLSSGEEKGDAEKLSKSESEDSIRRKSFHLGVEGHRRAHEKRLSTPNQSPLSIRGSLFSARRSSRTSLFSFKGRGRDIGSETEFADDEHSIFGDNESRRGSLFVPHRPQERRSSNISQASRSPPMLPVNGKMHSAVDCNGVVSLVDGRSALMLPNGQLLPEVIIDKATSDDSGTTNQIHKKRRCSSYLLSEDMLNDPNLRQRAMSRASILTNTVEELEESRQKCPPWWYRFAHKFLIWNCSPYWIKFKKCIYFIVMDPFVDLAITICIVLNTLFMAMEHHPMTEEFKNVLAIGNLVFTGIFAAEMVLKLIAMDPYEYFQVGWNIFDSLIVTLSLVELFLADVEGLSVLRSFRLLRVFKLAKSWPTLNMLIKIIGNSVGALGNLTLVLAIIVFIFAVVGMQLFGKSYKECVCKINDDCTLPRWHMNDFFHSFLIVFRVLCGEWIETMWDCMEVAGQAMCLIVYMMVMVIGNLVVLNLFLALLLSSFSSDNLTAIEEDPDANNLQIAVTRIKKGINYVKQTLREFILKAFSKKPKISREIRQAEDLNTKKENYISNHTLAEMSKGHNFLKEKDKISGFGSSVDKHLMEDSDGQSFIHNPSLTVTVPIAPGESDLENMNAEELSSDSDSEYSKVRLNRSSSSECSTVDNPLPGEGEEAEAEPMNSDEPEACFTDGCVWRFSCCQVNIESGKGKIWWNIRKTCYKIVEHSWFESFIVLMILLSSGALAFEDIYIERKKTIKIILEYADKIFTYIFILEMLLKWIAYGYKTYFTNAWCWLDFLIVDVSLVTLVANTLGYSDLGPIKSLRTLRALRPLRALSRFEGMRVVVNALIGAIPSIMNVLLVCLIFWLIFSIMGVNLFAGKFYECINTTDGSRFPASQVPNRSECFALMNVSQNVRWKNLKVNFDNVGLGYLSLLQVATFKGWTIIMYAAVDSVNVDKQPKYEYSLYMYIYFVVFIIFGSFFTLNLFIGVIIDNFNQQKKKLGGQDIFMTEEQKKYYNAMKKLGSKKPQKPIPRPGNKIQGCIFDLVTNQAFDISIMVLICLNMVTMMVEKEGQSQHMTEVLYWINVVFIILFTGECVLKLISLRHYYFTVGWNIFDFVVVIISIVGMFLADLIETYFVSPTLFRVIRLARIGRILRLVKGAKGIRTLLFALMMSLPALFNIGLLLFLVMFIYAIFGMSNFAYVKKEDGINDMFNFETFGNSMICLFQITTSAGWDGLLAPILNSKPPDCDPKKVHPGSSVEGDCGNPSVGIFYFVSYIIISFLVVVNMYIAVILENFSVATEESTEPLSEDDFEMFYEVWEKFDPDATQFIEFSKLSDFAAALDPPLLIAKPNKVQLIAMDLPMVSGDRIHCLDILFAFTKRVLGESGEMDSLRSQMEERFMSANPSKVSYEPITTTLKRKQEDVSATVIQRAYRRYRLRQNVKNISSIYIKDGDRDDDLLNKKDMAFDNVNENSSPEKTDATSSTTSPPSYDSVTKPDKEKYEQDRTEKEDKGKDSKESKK
# Experimental: as §1, §2
# [3] = biological target: T1, human Nav1.5 channels stably expressed in HEK 293 cells; assay: PatchXpress 7000 automated patch-clamp, sodium current; conditions: selectivity over Nav1.5
# Procedure, shortened: (§3)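 IC50 values came from Hill-equation fits of rundown-corrected inhibition. PatchXpress recordings at 22° C held cells 20 mV negative to V0.5 inact and applied 10 Hz trains of 30 ms steps to −20 mV (Nav1.7) or an 8000 ms prepulse 7 mV positive to V0.5 inact. […]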
# [4] = biological target: T2, human Nav1.7 channels stably expressed in HEK 293 cells; assay: as above; conditions: 22° C., read-out: potency for the Nav 1.7 sodium ion channel (as measured by PatchXpress)
# Procedure, shortened: as §3
# T1 sequence (Q14524 whole entry): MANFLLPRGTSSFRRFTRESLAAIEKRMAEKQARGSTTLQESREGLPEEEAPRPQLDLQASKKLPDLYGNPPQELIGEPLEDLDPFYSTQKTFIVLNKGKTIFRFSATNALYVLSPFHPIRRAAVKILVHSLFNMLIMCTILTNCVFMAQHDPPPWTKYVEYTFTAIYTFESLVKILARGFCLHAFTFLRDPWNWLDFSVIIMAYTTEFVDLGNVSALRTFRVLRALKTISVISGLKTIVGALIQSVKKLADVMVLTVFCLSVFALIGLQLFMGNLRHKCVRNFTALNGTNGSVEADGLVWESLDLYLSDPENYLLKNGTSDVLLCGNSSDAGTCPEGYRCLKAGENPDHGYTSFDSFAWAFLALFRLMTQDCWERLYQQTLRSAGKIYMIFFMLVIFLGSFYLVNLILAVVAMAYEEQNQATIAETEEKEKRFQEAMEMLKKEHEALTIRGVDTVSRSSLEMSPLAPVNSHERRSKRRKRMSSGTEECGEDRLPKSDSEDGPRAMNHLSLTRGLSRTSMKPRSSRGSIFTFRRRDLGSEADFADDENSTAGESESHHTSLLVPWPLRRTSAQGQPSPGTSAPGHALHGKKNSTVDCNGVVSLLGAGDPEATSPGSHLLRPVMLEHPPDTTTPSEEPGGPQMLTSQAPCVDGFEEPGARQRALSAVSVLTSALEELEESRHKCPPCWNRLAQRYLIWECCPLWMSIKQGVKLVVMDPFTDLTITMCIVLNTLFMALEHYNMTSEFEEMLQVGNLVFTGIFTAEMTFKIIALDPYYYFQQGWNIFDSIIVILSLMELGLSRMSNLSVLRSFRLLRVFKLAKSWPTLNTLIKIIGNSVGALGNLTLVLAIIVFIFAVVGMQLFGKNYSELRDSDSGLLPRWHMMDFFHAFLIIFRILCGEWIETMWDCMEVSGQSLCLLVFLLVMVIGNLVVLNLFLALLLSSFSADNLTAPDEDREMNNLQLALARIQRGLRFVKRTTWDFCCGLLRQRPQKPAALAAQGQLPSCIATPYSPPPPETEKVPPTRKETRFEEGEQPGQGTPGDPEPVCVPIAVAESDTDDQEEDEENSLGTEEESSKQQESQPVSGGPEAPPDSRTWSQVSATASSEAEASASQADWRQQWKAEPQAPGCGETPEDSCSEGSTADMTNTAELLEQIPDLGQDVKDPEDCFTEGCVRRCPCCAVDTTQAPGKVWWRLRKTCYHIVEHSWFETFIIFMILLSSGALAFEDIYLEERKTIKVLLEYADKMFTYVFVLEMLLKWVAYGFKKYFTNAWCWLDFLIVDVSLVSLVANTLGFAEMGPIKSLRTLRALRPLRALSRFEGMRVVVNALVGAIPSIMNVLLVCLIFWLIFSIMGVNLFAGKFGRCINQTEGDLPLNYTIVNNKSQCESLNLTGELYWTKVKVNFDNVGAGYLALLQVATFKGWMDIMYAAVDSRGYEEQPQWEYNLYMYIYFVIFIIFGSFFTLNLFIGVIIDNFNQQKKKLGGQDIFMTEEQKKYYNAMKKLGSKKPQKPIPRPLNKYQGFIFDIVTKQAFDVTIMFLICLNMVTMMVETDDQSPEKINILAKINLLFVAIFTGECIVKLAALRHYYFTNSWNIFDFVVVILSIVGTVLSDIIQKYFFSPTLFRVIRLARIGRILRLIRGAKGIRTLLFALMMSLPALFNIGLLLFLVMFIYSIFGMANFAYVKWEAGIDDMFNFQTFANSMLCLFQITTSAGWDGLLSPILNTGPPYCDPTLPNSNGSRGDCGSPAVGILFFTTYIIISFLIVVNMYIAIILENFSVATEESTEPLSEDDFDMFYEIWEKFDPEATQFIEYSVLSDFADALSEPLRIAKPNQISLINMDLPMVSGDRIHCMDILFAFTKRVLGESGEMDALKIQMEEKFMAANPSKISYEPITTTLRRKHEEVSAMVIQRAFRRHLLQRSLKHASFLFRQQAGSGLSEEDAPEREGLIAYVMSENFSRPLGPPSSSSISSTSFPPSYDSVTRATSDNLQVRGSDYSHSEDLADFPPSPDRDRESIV
compound,measurement,setting,value
"O=c1oc2cc(S(=O)(=O)Nc3ncns3)ccc2n1Cc1cccc(Cl)c1 [Compound 1-11, 3-(3-chlorobenzyl)-2-oxo-N-1,2,4-thiadiazol-5-yl-2,3-dihydro-1,3-benzoxazole-6-sulfonamide]","ratio of Nav 1.5:Nav 1.7 potency, determined by IonWorks measurement",[1],59
same,IC50,[2],360 nM
same,"ratio of Nav 1.5:Nav 1.7 potency, determined by PatchXpress measurement",[3],59
same,IC50,[4],360 nM
"O=c1oc2cc(S(=O)(=O)Nc3ncns3)ccc2n1Cc1ccccc1Cl [Compound 1-12, 3-(2-chlorobenzyl)-2-oxo-N-1,2,4-thiadiazol-5-yl-2,3-dihydro-1,3-benzoxazole-6-sulfonamide]","ratio of Nav 1.5:Nav 1.7 potency, determined by IonWorks measurement",[1],67
same,IC50,[2],408 nM
same,"ratio of Nav 1.5:Nav 1.7 potency, determined by PatchXpress measurement",[3],67
same,IC50,[4],408 nM
"O=c1oc2cc(S(=O)(=O)Nc3ncns3)ccc2n1Cc1ccc(Cl)cc1 [Compound 1-13, 3-(4-chlorobenzyl)-2-oxo-N-1,2,4-thiadiazol-5-yl-2,3-dihydro-1,3-benzoxazole-6-sulfonamide]","ratio of Nav 1.5:Nav 1.7 potency, determined by IonWorks measurement",[1],> 34
same,IC50,[2],976 nM
same,"ratio of Nav 1.5:Nav 1.7 potency, determined by PatchXpress measurement",[3],> 34
same,IC50,[4],976 nM
"NCc1ccccc1Cn1c(=O)oc2cc(S(=O)(=O)Nc3ncns3)ccc21 [Compound 1-14, 3-[2-(aminomethyl)benzyl]-2-oxo-N-1,2,4-thiadiazol-5-yl-2,3-dihydro-1,3-benzoxazole-6-sulfonamide]","ratio of Nav 1.5:Nav 1.7 potency, determined by IonWorks measurement",[1],> 125
same,IC50,[2],265 nM
same,"ratio of Nav 1.5:Nav 1.7 potency, determined by PatchXpress measurement",[3],45
same,IC50,[4],365 nM
"NC/C=C/c1ccccc1Cn1c(=O)oc2cc(S(=O)(=O)Nc3ncns3)ccc21 [Compound 3-3, 3-{2-[(1E)-3-Aminoprop-1-en-1-yl]benzyl}-2-oxo-N-(1,2,4-thiadiazol-5-yl)-2,3-dihydro-1,3-benzoxazole-6-sulfonamide]","ratio of Nav 1.5:Nav 1.7 potency, determined by IonWorks measurement",[1],65
same,IC50,[2],216 nM
same,"ratio of Nav 1.5:Nav 1.7 potency, determined by PatchXpress measurement",[3],> 89
same,IC50,[4],336 nM
"O=c1oc2cc(S(=O)(=O)Nc3ncns3)ccc2n1Cc1ccccc1-c1cccc2c1CNCC2 [Compound 3-4, 2-oxo-3-[2-(1,2,3,4-tetrahydroisoquinolin-8-yl)benzyl]-N-1,2,4-thiadiazol-5-yl-2,3-dihydro-1,3-benzoxazole-6-sulfonamide]","ratio of Nav 1.5:Nav 1.7 potency, determined by IonWorks measurement",[1],> 209
same,IC50,[2],158 nM
same,"ratio of Nav 1.5:Nav 1.7 potency, determined by PatchXpress measurement",[3],> 272
same,IC50,[4],110 nM
"O=c1oc2cc(S(=O)(=O)Nc3ncns3)ccc2n1Cc1ccccc1C1=CCNCCC1 [Compound 3-5, 2-oxo-3-[2-(2,5,6,7-tetrahydro-1H-azepin-4-yl)benzyl]-N-1,2,4-thiadiazol-5-yl-2,3-dihydro-1,3-benzoxazole-6-sulfonamide]","ratio of Nav 1.5:Nav 1.7 potency, determined by IonWorks measurement",[1],> 133
same,IC50,[2],248 nM
same,"ratio of Nav 1.5:Nav 1.7 potency, determined by PatchXpress measurement",[3],> 271
same,IC50,[4],111 nM
"O=c1oc2cc(S(=O)(=O)Nc3ncns3)ccc2n1Cc1ccccc1C1=CC2CCC(C1)N2 (stereo not shown) [Compound 3-7, 3-[2-(8-azabicyclo[3.2.1]oct-2-en-3-yl)benzyl]-2-oxo-N-1,2,4-thiadiazol-5-yl-2,3-dihydro-1,3-benzoxazole-6-sulfonamide]","ratio of Nav 1.5:Nav 1.7 potency, determined by IonWorks measurement",[1],> 113
same,IC50,[2],292 nM
same,"ratio of Nav 1.5:Nav 1.7 potency, determined by PatchXpress measurement",[3],> 219
same,IC50,[4],137 nM
"O=c1oc2cc(S(=O)(=O)Nc3ncns3)ccc2n1Cc1ccccc1-c1cccc2c1CCNC2 [Compound 3-8, 2-oxo-3-[2-(1,2,3,4-tetrahydroisoquinolin-5-yl)benzyl]-N-1,2,4-thiadiazol-5-yl-2,3-dihydro-1,3-benzoxazole-6-sulfonamide]","ratio of Nav 1.5:Nav 1.7 potency, determined by IonWorks measurement",[1],> 103
same,IC50,[2],321 nM
same,"ratio of Nav 1.5:Nav 1.7 potency, determined by PatchXpress measurement",[3],> 108
same,IC50,[4],278 nM
"NC/C=C/c1cc(Cl)ccc1Cn1c(=O)oc2cc(S(=O)(=O)Nc3ncns3)ccc21 [Compound 3-11, 3-{2-[(1E)-3-aminoprop-1-en-1-yl]-4-chlorobenzyl}-2-oxo-N-1,2,4-thiadiazol-5-yl-2,3-dihydro-1,3-benzoxazole-6-sulfonamide]","ratio of Nav 1.5:Nav 1.7 potency, determined by IonWorks measurement",[1],> 56
same,IC50,[2],596 nM
same,"ratio of Nav 1.5:Nav 1.7 potency, determined by PatchXpress measurement",[3],87
same,IC50,[4],219 nM
"C[C@H](c1cccc2c1CNCC2)n1c(=O)oc2cc(S(=O)(=O)Nc3ncns3)ccc21 [Compound 4-4, 2-Oxo-3-[(1R)-1-(1,2,3,4-tetrahydroisoquinolin-8-yl)ethyl]-N-(1,2,4-thiadiazol-5-yl)-2,3-dihydro-1,3-benzoxazole-6-sulfonamide]","ratio of Nav 1.5:Nav 1.7 potency, determined by IonWorks measurement",[1],4494
same,IC50,[2],5 nM
same,"ratio of Nav 1.5:Nav 1.7 potency, determined by PatchXpress measurement",[3],> 1153
same,IC50,[4],26 nM
"CC(c1ccccc1)n1c(=O)oc2cc(S(=O)(=O)Nc3ncns3)ccc21 (stereo not shown) [Compound 4-6, 2-oxo-3-(1-phenylethyl)-N-1,2,4-thiadiazol-5-yl-2,3-dihydro-1,3-benzoxazole-6-sulfonamide]","ratio of Nav 1.5:Nav 1.7 potency, determined by IonWorks measurement",[1],> 35
same,IC50,[2],954 nM
same,"ratio of Nav 1.5:Nav 1.7 potency, determined by PatchXpress measurement",[3],> 88
same,IC50,[4],342 nM
"C[C@H](c1ccccc1)n1c(=O)oc2cc(S(=O)(=O)Nc3ncns3)ccc21 [Compound 4-7, 2-oxo-3-[(1R)-1-phenylethyl]-N-1,2,4-thiadiazol-5-yl-2,3-dihydro-1,3-benzoxazole-6-sulfonamide]","ratio of Nav 1.5:Nav 1.7 potency, determined by IonWorks measurement",[1],28
same,IC50,[2],670 nM
same,"ratio of Nav 1.5:Nav 1.7 potency, determined by PatchXpress measurement",[3],287
same,IC50,[4],74 nM
"CC(c1ccccc1C(F)(F)F)n1c(=O)oc2cc(S(=O)(=O)Nc3ncns3)ccc21 (stereo not shown) [Compound 4-9, 2-oxo-N-1,2,4-thiadiazol-5-yl-3-{1-[2-(trifluoromethyl)phenyl]ethyl}-2,3-dihydro-1,3-benzoxazole-6-sulfonamide]","ratio of Nav 1.5:Nav 1.7 potency, determined by IonWorks measurement",[1],22
same,IC50,[2],1140 nM
same,"ratio of Nav 1.5:Nav 1.7 potency, determined by PatchXpress measurement",[3],> 11
same,IC50,[4],2640 nM
"CC(CCc1ccccc1)n1c(=O)oc2cc(S(=O)(=O)Nc3ncns3)ccc21 (stereo not shown) [Compound 4-11, 3-(1-methyl-3-phenylpropyl)-2-oxo-N-1,2,4-thiadiazol-5-yl-2,3-dihydro-1,3-benzoxazole-6-sulfonamide]","ratio of Nav 1.5:Nav 1.7 potency, determined by IonWorks measurement",[1],9
same,IC50,[2],1730 nM
same,"ratio of Nav 1.5:Nav 1.7 potency, determined by PatchXpress measurement",[3],> 17
same,IC50,[4],1770 nM
"CC(c1cccc2c1CNCC2)n1c(=O)oc2cc(S(=O)(=O)Nc3ncns3)ccc21 (stereo not shown) [Compound 4-14, 2-oxo-3-[1-(1,2,3,4-tetrahydroisoquinolin-8-yl)ethyl]-N-1,2,4-thiadiazol-5-yl-2,3-dihydro-1,3-benzoxazole-6-sulfonamide]","ratio of Nav 1.5:Nav 1.7 potency, determined by IonWorks measurement",[1],> 1338
same,IC50,[2],25 nM
same,"ratio of Nav 1.5:Nav 1.7 potency, determined by PatchXpress measurement",[3],> 495
same,IC50,[4],61 nM
"C[C@@H](c1cccc2c1CNCC2)n1c(=O)oc2cc(S(=O)(=O)Nc3ncns3)ccc21 [Compound 4-15, 2-oxo-3-[(1S)-1-(1,2,3,4-tetrahydroisoquinolin-8-yl)ethyl]-N-1,2,4-thiadiazol-5-yl-2,3-dihydro-1,3-benzoxazole-6-sulfonamide]","ratio of Nav 1.5:Nav 1.7 potency, determined by IonWorks measurement",[1],> 451
same,IC50,[2],73 nM
same,"ratio of Nav 1.5:Nav 1.7 potency, determined by PatchXpress measurement",[3],> 87
same,IC50,[4],343 nM
"CN1CCc2cccc(Cn3c(=O)oc4cc(S(=O)(=O)Nc5ncns5)ccc43)c2C1 [Compound 6-1, 3-[(2-Methyl-1,2,3,4-tetrahydroisoquinolin-8-yl)methyl]-2-oxo-N-(1,2,4-thiadiazol-5-yl)-2,3-dihydro-1,3-benzoxazole-6-sulfonamide]","ratio of Nav 1.5:Nav 1.7 potency, determined by IonWorks measurement",[1],88
same,IC50,[2],366 nM
same,"ratio of Nav 1.5:Nav 1.7 potency, determined by PatchXpress measurement",[3],> 35
same,IC50,[4],869 nM
"CCN1CCc2cccc(Cn3c(=O)oc4cc(S(=O)(=O)Nc5ncns5)ccc43)c2C1 [Compound 6-2, 3-[(2-ethyl-1,2,3,4-tetrahydroisoquinolin-8-yl)methyl]-2-oxo-N-1,2,4-thiadiazol-5-yl-2,3-dihydro-1,3-benzoxazole-6-sulfonamide]","ratio of Nav 1.5:Nav 1.7 potency, determined by IonWorks measurement",[1],> 98
same,IC50,[2],336 nM
same,"ratio of Nav 1.5:Nav 1.7 potency, determined by PatchXpress measurement",[3],71
same,IC50,[4],234 nM
